# Organism: Rattus norvegicus
# Test: DrugMatrix - Regimen: Daily Repeat
# Type: toxicity, organism-based, Sprague-Dawley
# Parameters: regimen Daily Repeat, gender Male, age 6-8 weeks
# Conditions: in vivo, po, 35 mg/kg, route oral GAVAGE, dose level High, vehicle .5 % CMC; for ABSOLUTE BASOPHIL / ABSOLUTE EOSINOPHIL / ABSOLUTE LYMPHOCYTE / ABSOLUTE MONOCYTE / ABSOLUTE SEGMENTED NEUTROPHIL / BASOPHIL / EOSINOPHIL / ERYTHROCYTE COUNT / HEMATOCRIT / HEMOGLOBIN / LEUKOCYTE COUNT / LYMPHOCYTE / MEAN CORPUSCULAR HEMOGLOBIN / MEAN CORPUSCULAR HEMOGLOBIN CONCENTRATION / MEAN CORPUSCULAR VOLUME / MONOCYTE / NEUTROPHIL / NUCLEATED RED BLOOD CELLS / PLATELET COUNT: tissue Blood; for ALANINE AMINOTRANSFERASE / ALBUMIN / ALKALINE PHOSPHATASE / ASPARTATE AMINOTRANSFERASE / BLOOD UREA NITROGEN / CARBON DIOXIDE / CHLORIDE / CHOLESTEROL / CREATINE PHOSPHOKINASE / CREATININE / GLUCOSE / LACTATE DEHYDROGENASE / LIPASE / PHOSPHORUS / POTASSIUM / SODIUM / TOTAL BILIRUBIN / TOTAL PROTEIN / URIC ACID: tissue Plasma
smiles,measurement,setting,value
COc1cc(CNC(=O)CCCC/C=C/C(C)C)ccc1O [CAPSAICIN],ABSOLUTE BASOPHIL,"72 h, time 3 day",0 CELLS/uL
same,ABSOLUTE EOSINOPHIL,"72 h, time 3 day",0 CELLS/uL
same,ABSOLUTE LYMPHOCYTE,"72 h, time 3 day",7477.33 CELLS/uL
same,ABSOLUTE MONOCYTE,"72 h, time 3 day",60 CELLS/uL
same,ABSOLUTE SEGMENTED NEUTROPHIL,"72 h, time 3 day",496 CELLS/uL
same,BASOPHIL,"72 h, time 3 day",0%
same,EOSINOPHIL,"72 h, time 3 day",0%
same,ERYTHROCYTE COUNT,"72 h, time 3 day",5.28 x10E6/uL
same,HEMATOCRIT,"72 h, time 3 day",33.53%
same,HEMOGLOBIN,"72 h, time 3 day",12.7 G/DL
same,LEUKOCYTE COUNT,"72 h, time 3 day",8.03 x10E3/uL
same,LYMPHOCYTE,"72 h, time 3 day",92.67%
same,MEAN CORPUSCULAR HEMOGLOBIN,"72 h, time 3 day",24.13 pg
same,MEAN CORPUSCULAR HEMOGLOBIN CONCENTRATION,"72 h, time 3 day",37.9 G/DL
same,MEAN CORPUSCULAR VOLUME,"72 h, time 3 day",63.63 fL
same,MONOCYTE,"72 h, time 3 day",1%
same,NEUTROPHIL,"72 h, time 3 day",6.33%
same,NUCLEATED RED BLOOD CELLS,"72 h, time 3 day",0.33 /100WBC
same,PLATELET COUNT,"72 h, time 3 day",1342.33 x10E3/uL
same,ALANINE AMINOTRANSFERASE,"72 h, time 3 day",44 u/L
same,ALBUMIN,"72 h, time 3 day",4.33 G/DL
same,ALKALINE PHOSPHATASE,"72 h, time 3 day",316 u/L
same,ASPARTATE AMINOTRANSFERASE,"72 h, time 3 day",71.33 u/L
same,BLOOD UREA NITROGEN,"72 h, time 3 day",17.33 mg/dL
same,CARBON DIOXIDE,"72 h, time 3 day",27.67 mmol/L
same,CHLORIDE,"72 h, time 3 day",103.5 MEQ/L
same,CHOLESTEROL,"72 h, time 3 day",75.67 mg/dL
same,CREATINE PHOSPHOKINASE,"72 h, time 3 day",217 u/L
same,CREATININE,"72 h, time 3 day",0.22 mg/dL
same,GLUCOSE,"72 h, time 3 day",141.67 mg/dL
same,LACTATE DEHYDROGENASE,"72 h, time 3 day",119.33 u/L
same,LIPASE,"72 h, time 3 day",8.5 u/L
same,PHOSPHORUS,"72 h, time 3 day",11.67 mg/dL
same,POTASSIUM,"72 h, time 3 day",5.75 MEQ/L
same,SODIUM,"72 h, time 3 day",147.2 MEQ/L
same,TOTAL BILIRUBIN,"72 h, time 3 day",0.27 mg/dL
same,TOTAL PROTEIN,"72 h, time 3 day",6.13 G/DL
same,URIC ACID,"72 h, time 3 day",1.1 mg/dL
same,ABSOLUTE BASOPHIL,"120 h, time 5 day",0 CELLS/uL
same,ABSOLUTE EOSINOPHIL,"120 h, time 5 day",117.33 CELLS/uL
same,ABSOLUTE LYMPHOCYTE,"120 h, time 5 day",12147.67 CELLS/uL
same,ABSOLUTE MONOCYTE,"120 h, time 5 day",58.67 CELLS/uL
same,ABSOLUTE SEGMENTED NEUTROPHIL,"120 h, time 5 day",1243 CELLS/uL
same,BASOPHIL,"120 h, time 5 day",0%
same,EOSINOPHIL,"120 h, time 5 day",1%
same,ERYTHROCYTE COUNT,"120 h, time 5 day",5.71 x10E6/uL
same,HEMATOCRIT,"120 h, time 5 day",34.97%
same,HEMOGLOBIN,"120 h, time 5 day",13.33 G/DL
same,LEUKOCYTE COUNT,"120 h, time 5 day",13.57 x10E3/uL
same,LYMPHOCYTE,"120 h, time 5 day",88.67%
same,MEAN CORPUSCULAR HEMOGLOBIN,"120 h, time 5 day",23.4 pg
same,MEAN CORPUSCULAR HEMOGLOBIN CONCENTRATION,"120 h, time 5 day",38.13 G/DL
same,MEAN CORPUSCULAR VOLUME,"120 h, time 5 day",61.27 fL
same,MONOCYTE,"120 h, time 5 day",0.33%
same,NEUTROPHIL,"120 h, time 5 day",10%
same,NUCLEATED RED BLOOD CELLS,"120 h, time 5 day",0 /100WBC
same,PLATELET COUNT,"120 h, time 5 day",1274 x10E3/uL
same,ALANINE AMINOTRANSFERASE,"120 h, time 5 day",52.67 u/L
same,ALBUMIN,"120 h, time 5 day",4.07 G/DL
same,ALKALINE PHOSPHATASE,"120 h, time 5 day",391 u/L
same,ASPARTATE AMINOTRANSFERASE,"120 h, time 5 day",83.67 u/L
same,BLOOD UREA NITROGEN,"120 h, time 5 day",18 mg/dL
same,CARBON DIOXIDE,"120 h, time 5 day",25.67 mmol/L
same,CHLORIDE,"120 h, time 5 day",105.33 MEQ/L
same,CHOLESTEROL,"120 h, time 5 day",62 mg/dL
same,CREATINE PHOSPHOKINASE,"120 h, time 5 day",166.33 u/L
same,CREATININE,"120 h, time 5 day",0.21 mg/dL
same,GLUCOSE,"120 h, time 5 day",177 mg/dL
same,LACTATE DEHYDROGENASE,"120 h, time 5 day",115.67 u/L
same,LIPASE,"120 h, time 5 day",8.67 u/L
same,PHOSPHORUS,"120 h, time 5 day",13.17 mg/dL
same,POTASSIUM,"120 h, time 5 day",6.01 MEQ/L
same,SODIUM,"120 h, time 5 day",146.17 MEQ/L
same,TOTAL BILIRUBIN,"120 h, time 5 day",0.17 mg/dL
same,TOTAL PROTEIN,"120 h, time 5 day",6.03 G/DL
same,URIC ACID,"120 h, time 5 day",1.8 mg/dL
